Laboratory results from patent US20120149645A1, “COMPOSITIONS AND MODULATION OF MYOCYTE ENHANCER FACTOR 2 (MEF2)” (EMORY UNIVERSITY, priority 2010, published 2012).

B1: ND6 MEF2 site probe WT (dsDNA)
DNA 1: CTAAACCCCCATAAATAGGAGAAGGCTT
DNA 2: AAGCCTTCTCCTATTTATGGGGGTTTAG

Experiments:
[1] = system: mitochondrial MEF2D and ND6; assay: MPTP mouse model, western blotting of mitochondria purified from brain SNpc; format: in vivo; conditions: chronic intraperitoneal MPTP vs saline treated controls
Protocol: For each group, six eight-week-old mice received chronic intraperitoneal injections of MPTP-HCl in saline or saline alone were killed on 5 or 20 days after injection. Mitochondria purified from brain SNpc region were analyzed by western blotting. Experiments were repeated three times. […] For each group, three mice received stereotactical injection of control vector (GFP) or Mt2Ddn lentivirus in SN. Two weeks later, mice were exposed to MPTP. After treatment for seven days, the survival of lentivirus-transduced TH+ neurons in SN was determined by immunohistochemistry (left panel). Quantitative analysis of nine mice from three independent experiments was shown at the bottom panel (scale bar, 30 μm; **P<0.01). […] Mitochondria were purified from brain striata of postmortem PD patients and controls (normal). Equal amounts of mitochondrial proteins were subjected to western blotting (upper panel). Quantitative analysis of the bands was shown at the right panel (n=13 patients and 13 controls, *P<0.01). Experiments were repeated two times.
Mitochondria were purified from brain tissue using discontinuous sucrose gradient method. Briefly, brain homogenate was made in ice-cold homo-buffer (0.32 M sucrose, 20 mM Tris-HCl, pH 7.4) and spun at 900×g, 4° C. for 10 min. The supernatant was transferred to another clean tube and spun at 10,000×g, 4° C. for 10 min. […]

[2] = system: TH+ neurons in SNpc; assay: MPTP mouse model of PD, TH immunohistochemistry in SNpc; conditions: mice, chronic MPTP exposure; SNpc and striatum
Protocol: (B) Role of mitochondrial MEF2D-ND6 pathway in maintaining TH+ neurons in SNpc in a MPTP mouse model of PD. For each group, three mice received stereotactical injection of control vector (GFP) or Mt2Ddn lentivirus in SN. Two weeks later, mice were exposed to MPTP. After treatment for seven days, the survival of lentivirus-transduced TH+ neurons in SN was determined by immunohistochemistry (left panel). Quantitative analysis of nine mice from three independent experiments was shown at the bottom panel (scale bar, 30 μm; **P<0.01).

[3] = target: MEF2D (1-91) (UniProt Q63943 Q63943:1-91); assay: EMSA; 10 ng protein, on ice 30 min; conditions: tags: GST fusion (N-terminal GST); label: 32P
MEF2D (1-91), sequence (Q63943 1-91, one chain of several): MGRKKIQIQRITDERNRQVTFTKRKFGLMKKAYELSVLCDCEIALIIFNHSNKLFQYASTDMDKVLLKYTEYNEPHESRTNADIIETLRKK

Row | Molecule | level of ND6 protein in mouse brain [1] | mitochondrial MEF2D in mouse brain [1] | immunohistochemical signal for tyrosine hydroxylase (TH) [2] | binding result [3]
1 | CN1CC=C(c2ccccc2)CC1 [MPTP, 1-methyl 4-phenyl 1,2,3,6-tetrahydropyridine] | clear decline | significant reduction | loss | 
2 | B1 |  |  |  | binds
